Measurements reported in publication PMC5131364, “Pharmacologic modulation of RORγt translates to efficacy in preclinical and translational models of psoriasis and inflammatory arthritis” (Scientific Reports, 2016).

Key:
[1] = tested on: human iTreg cells co-cultured with responder CD4+ T cells; assay: Human inducible regulatory T cells suppressive function; type: cell-based; conditions: iTreg generated in presence of 1 μM, CFSE
Procedure: 37 °C and 5% CO2 for 6 days. Cells were used for flow cytometry analysis of FOXP3+CD4+ T cells and RNA isolation to determine FOXP3 expression. The probe sets were purchased form Life technologies, FOXP3 […]
Human inducible regulatory T cells generation and suppressive function
To generate inducible regulatory T cells, naïve CD4 T cells was purified from PBMCs using naive CD4+ T cell isolation kit II, human (Miltenyi) and stimulated with anti‐CD3/anti‐CD28 antibodies plus IL‐2 and TGF‐β (10 ng/ml each, R&D system) in the presence or absence of 1µM JNJ‐54271074 . After 6‐7 days T cells were washed and Foxp3 expression was evaluated by FACS. […] After 4 days CFSE dilution was evaluated by FACS as an indication of responder T cell’s proliferation.
Supplementary Figure 1. […] Accumulated IL‐ 17A or IFNγ  was measured by ELISA.
Supplementary Figure 2. […] Total splenocytes were cultured with IL‐23 and IL‐2 in the presence of titrated JNJ‐54271074 for 4 days, and supernatants were measured for IL‐17A and IL‐22 by ELISA. IC50 was determined using Prism Graphpad.
Supplementary Figure 3. […] Cells were analyzed by flow cytometry for 17A+ and IL‐ 17A+/22+ population (A). […] Cells from DMSO or 1 µM JNJ‐54271074 treated wells were analyzed by flow cytometry for IFNγ+ and IL‐17A+ population (B) and IFNγ level in supernatants was […]

[2] = tested on: CD4+ T cells under Th1 conditions; assay: Mouse CD4+ T cell in vitro Th1 differentiation; type: cell-based; conditions: titrated compound, ELISA
Procedure: Mouse CD4+ T cell in vitro Th1 differentiation
Total CD4+ T cells were isolated from splenocytes of C57/BL6 mice (Chareles River Labrotory) using a CD4+ T cell isolation kit (Miltenyl Biotec, Auburn, CA), following the manufacturer’s instructions. Cells were resuspended in culture medium (described in Method section of Th17 differentiation) and were added to 96‐well plates at 2x10^5 per well. Titrated JNJ‐54271074 was added to each well at final DMSO concentration of 0.2%. Cells were incubated for 1 hour, after which Th1 cell differentiation medium was added with final concentrations of 1 µg/ml anti‐CD3, 5 µg/mL anti‐CD28 (BD Pharmingen, San Diego, CA), 10 µg/ml anti‐IL4, 10 ng/mL IL‐12, (R&D Systems, Minneapolis, MN). Cells were cultured at 37 °C and 5% CO2 for 3 days. Supernatants were collected and the accumulated cytokines in culture were measured by ELISA kits (R&D Systems, Minneapolis, MN) following manufacturers' instructions.
IL‐23 induced IL‐17A and IL‐22 production in mouse splenocytes splenocytes were isolated from C57/BL6 mice and resuspended in medium and cultured in 96‐well plates at […] per 100 µL per well. […] Supernatants were collected and the accumulated cytokines in culture were measured by ELISA according to the manufacturer’s instructions (IL‐17A kit from R&D systems, and IL‐22 from Biolegend San Diego). […]

COc1nc2ccc([C@@](O)(c3ccc(C)nc3C)c3cnnn3C)cc2c(Cl)c1Cc1ccc(C(F)(F)F)cc1 [JNJ-54271074]
Treg suppressive activity on T cell proliferation [1]: not affected | IFNγ production under Th1 conditions [2]: minimal effects
